Measurements published in ChEMBL document CHEMBL1146941, “Synthesis of pyrazinamide Mannich bases and its antitubercular properties” (2006).
Converted amounts (≈) assume the structure as drawn.

What was measured:
[1] = tested on: Mycobacterium tuberculosis; assay: Antimycobacterial activity against Mycobacterium tuberculosis; format: functional
Vero [2] = assay: Cytotoxicity against Vero cells by MTT assay; format: functional; conditions: Chlorocebus sabaeus
Vero [3] = assay: Selectivity index (CC50/MIC90); format: functional
[4] = tested on: Mycobacterium tuberculosis; assay: Activity against Mycobacterium tuberculosis ATCC 35801 in spleen of CD1 mice at 100 mg/kg; format: functional
[5] = tested on: Mycobacterium tuberculosis; assay: Activity against Mycobacterium tuberculosis ATCC 35801 in lungs of CD1 mice at 100 mg/kg; format: functional, Lung

| Compound | MIC90 [1] [µg/mL] | CC50 (Vero [2]) [µg/mL] | Selectivity index (Vero [3]) | other results |
| --- | --- | --- | --- | --- |
| O=C(NCN1CCN(c2ccccn2)CC1)c1cnccn1 | 12.5 (≈ 41.9 µM) |  |  |  |
| O=C(NCN1CCN(c2ccc(C(F)(F)F)cc2)CC1)c1cnccn1 | 0.78 (≈ 2.13 µM) | > 62.5 | >80 |  |
| CN1CCN(CNC(=O)c2cnccn2)CC1 | 12.5 (≈ 53.1 µM) |  |  | Log10 cfu [4]: 7.18; Log10 cfu [5]: 6.02 |
| O=C(NCN1CCN(Cc2ccccc2)CC1)c1cnccn1 | 6.25 (≈ 20.1 µM) |  |  |  |
| O=C(NCN1CCN(c2cccc(Cl)c2)CC1)c1cnccn1 | 3.12 (≈ 9.4 µM) |  |  |  |
| O=C(NCN1CCN(c2ccc(Cl)cc2)CC1)c1cnccn1 | 3.12 (≈ 9.4 µM) |  |  |  |
| COc1ccc(N2CCN(CNC(=O)c3cnccn3)CC2)cc1 | 12.5 (≈ 38.2 µM) |  |  |  |
| O=C(NCN1CCN(c2ccc([N+](=O)[O-])cc2)CC1)c1cnccn1 | 6.25 (≈ 18.3 µM) |  |  |  |
| COc1cccc(N2CCN(CNC(=O)c3cnccn3)CC2)c1 | 12.5 (≈ 38.2 µM) |  |  |  |
| O=C(NCN1CCN(c2ccccc2)CC1)c1cnccn1 | 6.25 (≈ 21 µM) |  |  |  |
| CCn1cc(C(=O)O)c(=O)c2cc(F)c(N3CCN(CNC(=O)c4cnccn4)CC3)cc21 | 1.76 (≈ 3.87 µM) | > 62.5 | >40 |  |
| O=C(NCN1CCN(c2cc3c(cc2F)c(=O)c(C(=O)O)cn3C2CC2)CC1)c1cnccn1 | 3.13 (≈ 6.71 µM) | > 62.5 | >20 |  |
| CCn1cc(C(=O)O)c(=O)c2cc(F)c(N3CCN(CNC(=O)c4cnccn4)CC3)c(F)c21 | 0.78 (≈ 1.65 µM) | > 62.5 | >80 |  |
| O=C(NCN1CCN(c2ncccn2)CC1)c1cnccn1 | > 12.5 |  |  |  |
| COc1ccccc1N1CCN(CNC(=O)c2cnccn2)CC1 | 12.5 (≈ 38.2 µM) |  |  |  |
| O=C(NCN1CCN(c2ccc(F)cc2)CC1)c1cnccn1 | 1.76 (≈ 5.58 µM) | > 62.5 | >40 |  |
| COc1c(N2CCN(CNC(=O)c3cnccn3)C(C)C2)c(F)cc2c(=O)c(C(=O)O)cn(C3CC3)c12 (stereo unspecified) |  | > 62.5 | >160 |  |
| NC(=O)c1cnccn1 [PYRAZINAMIDE] | 12.5 (≈ 102 µM) |  |  |  |
